Laboratory results published in article PMC6272152, “The Role of Phosphoglycans in the Susceptibility of Leishmania mexicana to the Temporin Family of Anti-Microbial Peptides” (Molecules, 2015).

How the values were obtained:
[1] = tested on: L. mexicana ∆lpg2 promastigotes (lacking LPG and PPG); assay: alamarBlue viability assay, ∆lpg2 mutant promastigotes; assay type: cell-based, Leishmania mexicana; details: for ED50 L. mexicana ∆lpg2: ∆lpg2 mutant promastigotes, alamarBlue viability vs DMSO control, 2–100 µM peptide, 1 h preincubation serum-free at 26 °C, then 24 h, mean (range) of at least 3 independent experiments in triplicate
Description: (§1) Figure 2 Activity of the temporin peptides against ∆lpg1 and ∆lpg2 promastigote L. mexicana. Using the alamarBlue® assay system, L. mexicana ∆lpg1 (A) and ∆lpg2 (B) mutant promastigote viability in the presence of various concentrations (2–100 µM) of the temporin peptides was determined with respect to a DMSO control. Amphotericin B (2–100 µM) was utilized as a positive control. Data points represent the mean of 3 independent experiments performed in triplicate. Standard deviation indicated. Cell viability <50% indicated by red bars.
Proteophosphogylcans (PPGs) are a large range of secreted and cell surface associated parasite glycoconjugates which, like LPG, carry a negative charge. Both axenic and intramacrophage L. mexicana amastigotes lack cell surface associated PPG, although the intracellular parasites do secrete a form of PPG known as aPPG [26, 27]. Targeted deletion of lpg2, a Golgi GDP-Man transporter, to create ∆lpg2 [25] prevented the formation of the phosphoglycan repeats that make up the backbone of LPG and PPG leaving the promastigote surface devoid of these negatively charged macromolecules. […] Like the temporins, amphotericin B is a pore forming compound [28].
(§2) Leishmania mexicana (MNYC/BZ/62/M379) wild type and LPG mutant parasites (∆lpg1 [23] and ∆lpg2 [25]) were maintained at 26 °C in Schneider’s Drosophila media (Sigma Aldrich) supplemented with heat inactivated foetal bovine sera (15% for promastigotes and mutants, and 20% for amastigotes; Biosera). Promastigotes were transformed into axenic amastigotes by a pH and temperature shift as previously described. Cells were counted using a Neubauer Improved Haemocytometer. Cytotoxicity analyses were performed in 96-well plates (Costar, Corning Inc., Amsterdam, The Netherlands) using alamarBlue® (Life Technologies, Paisley, UK) with some modifications to the published, optimized protocol. Briefly, to mitigate against the effects of serum on the efficacy of the peptides, promastigote and amastigote L. mexicana were preincubated (26 °C for promatastigotes; 33 °C for amastigotes) with the temporins (2–100 µM) in 10 µL of serum-free media at 4 × 10^6 mL^−1 for 1 h before the addition of 90 µL of complete media. Following incubation at the appropriate temperature for 24 h, 10 µL of alamarBlue® was added to each well and the plates incubated for a further 4 h prior to assessing cell viability using a fluorescent plate reader (Biotek UK, Potton, UK; 560EX nm/600EM nm). All data points were in triplicate, with amphotericin B as positive and DMSO as negative controls. All of the experiments described above were carried out on a minimum of three separate occasions to ensure a robust data set was collected.

[2] = tested on: L. infantum axenic amastigotes; details: cited from earlier work
Text: (§3) L. infantum is an Old World species and a member of the L. donovani complex, causing visceral disease in the Mediterranean basin, which has subsequently spread to Latin America where it is sometimes known as L. chagasi. Like L. mexicana, L. pifanoi is a New World species, however it is part of the subgenus Viannia whereas L. mexicana is part of the subgenus Leishmania which actually makes it ...

[3] = tested on: L. mexicana amastigote; assay: alamarBlue viability assay, axenic amastigotes; assay type: cell-based, Leishmania mexicana (MNYC/BZ/62/M379); details: for ED50 L. mexicana Amastigote: alamarBlue viability vs DMSO control, 2–100 µM peptide, 1 h preincubation in serum-free media at 33 °C, then complete media 24 h, alamarBlue 4 h, fluorescence, mean (range) of at least 3 independent experiments in triplicate
Description: as §1, with “Figure 1” for “Figure 2”, “against wild type promastigote” for “against ∆lpg1”, “and amastigote” for “and ∆lpg2 promastigote”, “mexicana promastigote” for “mexicana ∆lpg1”, “and amastigote” for “and ∆lpg2”, “(B)” for “(B) mutant promastigote”
as §2

[4] = tested on: L. mexicana promastigote (wild type); assay: alamarBlue viability assay, wild type promastigotes; assay type: cell-based, Leishmania mexicana (MNYC/BZ/62/M379); details: alamarBlue viability vs DMSO control, 2–100 µM peptide, 1 h preincubation in serum-free media at 26 °C, then complete media 24 h, alamarBlue 4 h, fluorescence, mean (range) of at least 3 independent experiments in triplicate
Description: as §1, with “Figure 1” for “Figure 2”, “against wild type promastigote” for “against ∆lpg1”, “and amastigote” for “and ∆lpg2 promastigote”, “mexicana promastigote” for “mexicana ∆lpg1”, “and amastigote” for “and ∆lpg2”, “(B)” for “(B) mutant promastigote”
as §2

[5] = tested on: L. mexicana ∆lpg1 promastigotes (lacking LPG); assay: alamarBlue viability assay, ∆lpg1 mutant promastigotes; assay type: cell-based, Leishmania mexicana; details: alamarBlue viability vs DMSO control, 2–100 µM peptide, 1 h preincubation serum-free at 26 °C, then 24 h, mean (range) of at least 3 independent experiments in triplicate
Description: Previously it has been postulated that LPG, which forms a thick negatively charged layer, protects the promatigote parasite from cationic AMPs by capturing them and preventing interaction with the cell surface. […] To test this hypothesis the five temporins were assayed for their activity against L. mexicana promastigotes engineered to lack LPG, ∆lpg1 [23]. […] The results obtained were perhaps surprising, with the temporins showing little or no difference in efficacy against the ∆lpg1 mutant when compared with the wild type L. mexicana promastigotes (Figure 1A and Figure 2A; Table 2). However, it is notable the that efficacy of temporins A and B have previously been reported to be unchanged against a similar, although less defined, L. donovani LPG mutant.
as §1, §2

[6] = tested on: L. donovani LPG mutant; details: similar, less defined LPG mutant; cited from earlier work
Text: Previously it has been postulated that LPG, which forms a thick negatively charged layer, protects the promatigote parasite from cationic AMPs by capturing them and preventing interaction with the cell surface. […] To t ...

[7] = tested on: L. pifanoi axenic amastigotes; details: cited from earlier work
Text: as §3

C[C@@H]1[C@H](O)[C@@H](C)/C=C/C=C/C=C/C=C/C=C/C=C/C=C/[C@H](O[C@@H]2O[C@H](C)[C@@H](O)[C@H](N)[C@@H]2O)C[C@@H]2O[C@](O)(C[C@@H](O)C[C@@H](O)[C@H](O)CC[C@@H](O)C[C@@H](O)CC(=O)O[C@H]1C)C[C@H](O)[C@H]2C(=O)O [amphotericin B, Amphotericin B, reference compound]
efficacy against ∆lpg2 compared with wild type promastigotes ([1]; positive control, 2–100 µM, alamarBlue, Figure 2B): less effective

FLSGIVGMLGKLF-NH2 [Temporin 1Sa, amphibian-derived temporin antimicrobial peptide, […]-NH2]
ED50 L. mexicana ∆lpg2 [1]: 31 (28–35) µM | ED50 L. mexicana ∆lpg2 ([1]; listed as 1Sa): 31 µM | activity against axenic amastigotes of L. infantum [2]: significant activity | ED50 L. mexicana Amastigote [3]: 42 (35–44) µM | ED50 L. mexicana Amastigote ([3]; listed as 1Sa): 42 µM | ED50 L. mexicana Promastiogte [4]: 4 (3–13) µM | ED50 L. mexicana Promastiogte ([4]; listed as temporin 1Sa): 4 µM | ED50 L. mexicana ∆lpg1 [5]: 6 (3–18) µM

FLPLIGRVLSGIL-NH2 [Temporin A, amphibian-derived temporin antimicrobial peptide, […]-NH2]
efficacy against L. donovani LPG mutant [6]: unchanged | ED50 L. mexicana ∆lpg2 [1]: 26 (21–39) µM | ED50 L. mexicana ∆lpg2 ([1]; listed as temporin A): 26 µM | activity against axenic amastigotes of L. pifanoi [7]: significant activity | ED50 L. mexicana Amastigote [3]: ~100 µM | ED50 L. mexicana Amastigote ([3]; listed as temporin A): approximately 100 µM | ED50 L. mexicana Promastiogte [4]: 8 (6–14) µM | ED50 L. mexicana Promastiogte ([4]; listed as temporin A): 8 µM | ED50 L. mexicana ∆lpg1 [5]: 11 (8–16) µM

LLPIVGNLLKSLL-NH2 [Temporin B, amphibian-derived temporin antimicrobial peptide, […]-NH2]
efficacy against L. donovani LPG mutant [6]: unchanged | ED50 L. mexicana ∆lpg2 [1]: 41 (40–41) µM | activity against axenic amastigotes of L. pifanoi [7]: significant activity | activity against amastigote form at the maximal concentration tested ([3]; 100 µM, alamarBlue): inactive | ED50 L. mexicana Amastigote [3]: >100 µM | ED50 L. mexicana Promastiogte [4]: 38 (24–64) µM | ED50 L. mexicana Promastiogte ([4]; listed as temporin B): 38 µM | ED50 L. mexicana ∆lpg1 [5]: 39 (28–70) µM

FVQWFSKFLGRIL-NH2 [Temporin L, amphibian-derived temporin antimicrobial peptide, …-NH2]
ED50 L. mexicana ∆lpg2 [1]: 9 (8–12) µM | ED50 L. mexicana ∆lpg2 ([1]; listed as L): 9 µM | ED50 L. mexicana Amastigote [3]: 83 (46–93) µM | ED50 L. mexicana Amastigote ([3]; listed as L): 83 µM | ED50 L. mexicana Promastiogte [4]: 5 (5–6) µM | ED50 L. mexicana Promastiogte ([4]; listed as L): 5 µM | ED50 L. mexicana ∆lpg1 [5]: 4 (3–6) µM
